For 35 compounds, class results are on record in patent US20050197350A1, “Novel quinoline, tetrahydroquinazoline, and pyrimidine derivatives and methods of treatment related to the use thereof” (TAISHO PHARMACEUTICAL CO., LTD., priority 2003, published 2005).

Structures are written as SMILES.

For one assay, the system named is MCH receptors. The experiment in a line: MCH receptor activity class (method not given). Conditions: MCH receptor activity class 1-3 (percent of control at 10^-7 M or IC50).
On to `CCc1cccc(C(C)C)c1NC(=O)NC[C@H]1CC[C@@H](Nc2nc3c(c(N(C)C)n2)CCCC3)CC1` [compound 2468], for which the class is given as 1 (Class 1: The value of percent of control at 10^−7 M was less than 40% or the value of IC50 was less than 50 nM.).
Regarding `CN(C)c1ccnc(N[C@H]2CC[C@@H](NC(=S)Nc3ccc(Br)cc3OC(F)(F)F)CC2)n1` [compound 2352], the class was 3 (Class 3 The value of percent of control at 10^−7 M was more than 60% or the value of IC50 was more than 200 nM.).
On the same count and under the same terms, with `CCCc1ccccc1NC(=O)NC[C@H]1CC[C@@H](Nc2nc3c(c(N(C)C)n2)CCCC3)CC1` [compound 2474] the figure was 3 (Class 3 The value of percent of control at 10^−7 M was more than 60% or the value of IC50 was more than 200 nM.); with `Cc1cccc(Cl)c1NC(=O)NC[C@H]1CC[C@@H](Nc2nccc(N(C)C)n2)CC1` [compound 2420, N-(2-chloro-6-methylphenyl)-N′-[(cis-4-{[4-(dimethylamino)pyrimidin-2-yl]amino}cyclohexyl)methyl]urea], 1 (Class 1: The value of percent of control at 10^−7 M was less than 40% or the value of IC50 was less than 50 nM.).

The assay is the same for the next values; noted with them: MCH receptor; class by percent of control at 10^-7 M or IC50.
On to `CN(C)c1cc(N[C@H]2CC[C@@H](NC(=O)c3cc(-c4ccc(Cl)cc4)oc3C(F)(F)F)CC2)nc2ccccc12` [compound 140], for which the class is 3 (Class 3 The value of percent of control at 10^−7 M was more than 60% or the value of IC50 was more than 200 nM.).
Same read-out and setting: with `CN(C)c1nc(N[C@H]2CC[C@@H](NC(=O)NC3CCN(C(=O)OCc4ccccc4)CC3)CC2)nc2c1CCCC2` [compound 1921] the figure was 3 (Class 3 The value of percent of control at 10^−7 M was more than 60% or the value of IC50 was more than 200 nM.); with `CN(C)c1cc(N[C@H]2CC[C@@H](NC(=O)c3cc(Cl)sc3Cl)CC2)nc2ccccc12` [compound 83], 2 (Class 2: The value of percent of control at 10^−7 M was from 40% to 60% or the value of IC′50 was from 50 nM to 200 nM.); with `CN(C)c1nc(N[C@H]2CC[C@@H](NC(=S)Nc3ccc4nsnc4c3)CC2)nc2c1CCCC2` [compound 2084], 3 (Class 3 The value of percent of control at 10^−7 M was more than 60% or the value of IC50 was more than 200 nM.).
Same read-out and setting: then `CN(C)c1nc(N[C@H]2CC[C@@H](NC(=S)Nc3cccc(C#N)c3)CC2)nc2c1CCCC2` [compound 1983], with 3 (Class 3 The value of percent of control at 10^−7 M was more than 60% or the value of IC50 was more than 200 nM.); and `Cc1cc(C)cc(NC(=S)N[C@H]2CC[C@@H](Nc3nc4c(c(N(C)C)n3)CCCC4)CC2)c1` [compound 2007], with 3 (Class 3 The value of percent of control at 10^−7 M was more than 60% or the value of IC50 was more than 200 nM.).

Still in this assay, the particulars now being: activity class 1-3: percent of control at 10^-7 M or IC50.
Regarding `CN(C)c1nc(N[C@H]2CC[C@@H](CNC(=O)OCC(Cl)(Cl)Cl)CC2)nc2c1CCCC2` [compound 1618], the class is 3 (Class 3 The value of percent of control at 10^−7 M was more than 60% or the value of IC50 was more than 200 nM.).
The same measure, in the same setting: then `COC(=O)N[C@H]1CC[C@@H](Nc2nccc(N(C)C)n2)CC1` [compound 1635], with 3 (Class 3 The value of percent of control at 10^−7 M was more than 60% or the value of IC50 was more than 200 nM.); and `Cc1c(Cl)cccc1NC(=O)N[C@H]1CC[C@@H](Nc2nc3c(c(N(C)C)n2)CCCC3)CC1` [compound 1685], with 3 (Class 3 The value of percent of control at 10^−7 M was more than 60% or the value of IC50 was more than 200 nM.); and `CN(C)c1nc(N[C@H]2CC[C@@H](NC(=O)Nc3c(F)cc(Br)cc3F)CC2)nc2c1CCCC2` [compound 1686], with 3 (Class 3 The value of percent of control at 10^−7 M was more than 60% or the value of IC50 was more than 200 nM.).

The assay is the same for the next values; noted with them: activity class per percent of control at 10^-7 M or IC50.
For `CN(C)c1cc(N[C@H]2CC[C@@H](NCc3c[nH]nc3-c3ccc(F)cc3)CC2)nc2ccccc12` [compound 1117], the class is recorded as 3 (Class 3 The value of percent of control at 10^−7 M was more than 60% or the value of IC50 was more than 200 nM.).
Same read-out and setting: then `CN(C)c1nc(N[C@H]2CC[C@@H](NC(=O)/C=C/c3ccccc3[N+](=O)[O-])CC2)nc2c1CCCC2` [compound 1002], with 3 (Class 3 The value of percent of control at 10^−7 M was more than 60% or the value of IC50 was more than 200 nM.).

Staying with this assay, now noted: class by percent of control at 10^-7 M or IC50.
On to `COc1cc(C(=O)N[C@H]2CC[C@@H](Nc3cc(N(C)C)c4ccccc4n3)CC2)ccc1[N+](=O)[O-]` [compound 690, N-(cis-4-{[4-(dimethylamino)quinolin-2-yl]amino}cyclohexyl)-3-methoxy-4-nitrobenzamide], for which the class is 1 (Class 1: The value of percent of control at 10^−7 M was less than 40% or the value of IC50 was less than 50 nM.).
On the same count and under the same terms, with `COc1ccc(Br)c(C(=O)N[C@H]2CC[C@@H](Nc3nccc(N(C)C)n3)CC2)c1` [compound 339] the figure was 3 (Class 3 The value of percent of control at 10^−7 M was more than 60% or the value of IC50 was more than 200 nM.); with `CCCCNC(=O)N[C@H]1CC[C@@H](Nc2cc(N(C)C)c3ccccc3n2)CC1` [compound 2125], 3 (Class 3 The value of percent of control at 10^−7 M was more than 60% or the value of IC50 was more than 200 nM.); with `CC(C)Oc1ccc(CNC[C@H]2CC[C@@H](Nc3nc4c(c(N(C)C)n3)CCCC4)CC2)cc1` [compound 1398], 3 (Class 3 The value of percent of control at 10^−7 M was more than 60% or the value of IC50 was more than 200 nM.).
`CN(C)c1cc(N[C@H]2CC[C@@H](CNC(=O)CCc3ccccc3O)CC2)nc2ccccc12` [compound 794]: the class is 3 (Class 3 The value of percent of control at 10^−7 M was more than 60% or the value of IC50 was more than 200 nM.).
Regarding `CN(C)c1ccnc(N[C@H]2CC[C@@H](NC(=O)COc3ccccc3)CC2)n1` [compound 330, N-(cis-4-{[4-(dimethylamino)pyrimidin-2-yl]amino}cyclohexyl)-2-phenoxyacetamide], the class is reported as 2 (Class 2: The value of percent of control at 10^−7 M was from 40% to 60% or the value of IC′50 was from 50 nM to 200 nM.).
On the same count and under the same terms, with `CN(C)c1ccnc(N[C@H]2CC[C@@H](NC(=O)C(c3ccccc3)c3ccccc3)CC2)n1` [compound 250, N-(cis-4-{[4-(dimethylamino)pyrimidin-2-yl]amino}cyclohexyl)-2,2-diphenylacetamide] the figure was 2 (Class 2: The value of percent of control at 10^−7 M was from 40% to 60% or the value of IC′50 was from 50 nM to 200 nM.).
Consider `Cc1cc(Br)cc(C)c1NC(=O)NC[C@H]1CC[C@@H](Nc2nc3c(c(N(C)C)n2)CCCC3)CC1` [compound 2482, N-(4-bromo-2,6-dimethylphenyl)-N′-[(cis-4-{[4-(dimethylamino)-5,6,7,8-tetrahydroquinazolin-2-yl]amino}cyclohexyl)methyl]urea], for which the class is listed as 1 (Class 1: The value of percent of control at 10^−7 M was less than 40% or the value of IC50 was less than 50 nM.).
For the compound `Cc1cccc(CNC[C@H]2CC[C@@H](Nc3cc(N(C)C)c4ccccc4n3)CC2)c1` [compound 1184], the class is listed as 3 (Class 3 The value of percent of control at 10^−7 M was more than 60% or the value of IC50 was more than 200 nM.).
Same read-out and setting: with `CN(C)c1ccnc(N[C@H]2CC[C@@H](NC(=O)c3ccc(Br)s3)CC2)n1` [compound 812] the figure was 3 (Class 3 The value of percent of control at 10^−7 M was more than 60% or the value of IC50 was more than 200 nM.); with `CN(C)c1cc(N[C@H]2CC[C@@H](CNCCc3ccc(C(C)(C)C)cc3)CC2)nc2ccccc12` [compound 1468], 3 (Class 3 The value of percent of control at 10^−7 M was more than 60% or the value of IC50 was more than 200 nM.); with `CC(C(=O)N[C@H]1CC[C@@H](Nc2nccc(N(C)C)n2)CC1)c1ccc(N2Cc3ccccc3C2=O)cc1` (relative stereo) [compound 849], 3 (Class 3 The value of percent of control at 10^−7 M was more than 60% or the value of IC50 was more than 200 nM.).
The same measure, in the same setting: with `CN(C)c1nc(N[C@H]2CC[C@@H](CNC(=O)Cc3cccc4ccccc34)CC2)nc2c1CCCC2` [compound 651] the figure was 3 (Class 3 The value of percent of control at 10^−7 M was more than 60% or the value of IC50 was more than 200 nM.); with `COc1cc(OC)c(CNC[C@H]2CC[C@@H](Nc3nc4c(c(N(C)C)n3)CCCC4)CC2)c(OC)c1` [compound 1403], 1 (Class 1: The value of percent of control at 10^−7 M was less than 40% or the value of IC50 was less than 50 nM.).
Same read-out and setting: with `COc1cccc2cc(C(=O)N[C@H]3CC[C@@H](Nc4nccc(N(C)C)n4)CC3)oc12` [compound 921] the figure was 3 (Class 3 The value of percent of control at 10^−7 M was more than 60% or the value of IC50 was more than 200 nM.); with `CN(C)c1nc(N[C@H]2CC[C@@H](CNCc3cc(C(F)(F)F)ccc3F)CC2)nc2c1CCCC2` [compound 1395], 3 (Class 3 The value of percent of control at 10^−7 M was more than 60% or the value of IC50 was more than 200 nM.).

Staying with this assay, now noted: class by percent of control at 10^−7 M or IC50.
In the case of `Cc1cc(N(C)C)nc(NC[C@H]2CC[C@@H](NC(=O)c3ccc(C)c(F)c3)CC2)n1` [compound 2737], the class is recorded as 3 (Class 3 The value of percent of control at 10^−7 M was more than 60% or the value of IC50 was more than 200 nM.).
On the same count and under the same terms, then `Cc1nc(N[C@H]2CC[C@@H](NC(=O)c3ccc(F)cc3)CC2)nc(N(C)C)c1C` [compound 2846, N-(cis-4-{[4-(dimethylamino)-5,6-dimethylpyrimidin-2-yl]amino}cyclohexyl)-4-fluorobenzamide], with 1 (Class 1: The value of percent of control at 10^−7 M was less than 40% or the value of IC50 was less than 50 nM.); and `Cc1cc(N(C)C)nc(NC[C@H]2CC[C@@H](NC(=O)c3ccc(Br)cc3)CC2)n1` [compound 2744, 4-bromo-N-[cis-4-({[4-(dimethylamino)-6-methylpyrimidin-2-yl]amino}methyl)cyclohexyl]benzamide], with 2 (Class 2: The value of percent of control at 10^−7 M was from 40% to 60% or the value of IC′50 was from 50 nM to 200 nM.).
